Test results reported in patent US6632979B2, “Rodent HER2 tumor model” (Genentech, Inc., priority 2000, dated 2003).
Entries after “also recorded” stand apart in the source; their conditions may differ.

Assays:
[1] = system: tumors from the HER2 transgenic cell line HER-3081-3-10; test: Growth of tumors from cell line HER-3081-3-10 in mice; type: in vivo, mouse; settings: 4D5, 7C2 30 mg/kg intraperitoneally for 4 weeks; taxol 15.6 mg/kg subcutaneously daily for 5 days; tumors 100 mm^3, FIG. 16
Description: The efficacy of taxol and anti-HER2 monclonal antibodies 7C2 and 4D5 in preventing tumor growth was assessed (FIG. 16). At day 0, 6-8 week old FVP mice were innoculated under the skin with 2 million tumor cells from cell line HER-3081-3-10. When the tumors reached 100 mm^3 the mice were separated into 5 groups with 9 animals per group. Antibodies 4D5 and 7C2 were given intraperitoneally at 30 mg/kg for 4 weeks. Taxol was given subcutaneously daily for 5 days at 15.6 mg/kg. Tumors were measured during the study at regular intervals.

[2] = system: MMTV-HER2-transgenic tumors transplanted into the mammary fat pad of FVB mice; test: Transplanted MMTV-HER2-transgenic tumor model in FVB mice; type: in vivo, mouse
From the text: Two mm3 pieces of MMTV-HER2-transgenic tumors were transplanted into the mammary fat pad of FVB mice.
All animals received five doses.
The tumor was surgically resected under aseptic conditions and minced into small pieces, 2 mm^3, which were then transplanted into the mammary fat pad of wild-type FVB female mice.

[3] = system: HER-5, HER-3081-3-4, HER-3081-3-10 and HER-3081-3-19 cells; test: Mitogen responsiveness of HER2 transgenic cell lines, crystal violet; type: cell-based, mouse; settings: heregulin 0.005-5 nM or EGF 0.05-50 ng/ml, 4 days, FIG. 11
Description: Briefly, cells were detached from a T75 flask with Dissociation Solution (Sigma) and plated in fibronectin coated 96 well plates. Approximately 10,000 cells were plated per well in 0.1 ml of fully supplemented media. […] After 4 days plates were washed twice with PBS (pH 7.5), stained with crystal violet (0.5% in methanol), dried, solubilized and the optical density measured at a wavelength of 540 nm on a plate reader, essentially as described in Sugarman et al. Science 230:943-945 (1985).

## CC(=O)O[C@H]1C(=O)[C@@]2(C)[C@H]([C@H](OC(=O)c3ccccc3)[C@]3(O)C[C@H](OC(=O)[C@H](O)[C@@H](NC(=O)c4ccccc4)c4ccccc4)C(C)=C1C3(C)C)[C@]1(OC(C)=O)CO[C@@H]1C[C@@H]2O [taxol, paclitaxel]
[1]
  reduction of tumor growth: more effective than either of the antibodies alone

## RITUXAN®: an unrelated antibody, used as negative control
[2]; FIG. 7, unconjugated control antibody
  efficacy on tumor size: no efficacy
[2]; FIG. 8, control antibody and control conjugate
  effect on tumor growth: Neither unconjugated RITUXAN® (control MAb E25) nor RITUXAN®-DM1 had any obvious effect on tumor growth

## heregulin
[3]
  proliferation in response to mitogen: only the HER-5 cell line proliferated; also recorded: mitogens only for cell line HER-5
